This experiment concerns the target T1, glucocorticoid receptor (GR) (Homo sapiens, UniProt P04150).
T1 sequence (P04150 521-777): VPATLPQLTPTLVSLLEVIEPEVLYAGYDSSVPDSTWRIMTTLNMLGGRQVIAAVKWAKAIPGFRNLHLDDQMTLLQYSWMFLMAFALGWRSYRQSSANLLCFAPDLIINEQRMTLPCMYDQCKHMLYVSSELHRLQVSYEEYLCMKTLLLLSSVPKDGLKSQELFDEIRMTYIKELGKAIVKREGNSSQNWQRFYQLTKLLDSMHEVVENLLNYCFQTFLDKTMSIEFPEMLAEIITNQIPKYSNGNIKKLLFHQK
In words: Assay for agonist activity on glucocorticoid receptor (luciferase reporter, HEK293 cells transfected with pBIND-GR plasmid). The experiment is classed as cell-based. As to conditions: HEK293 cells transfected with pBIND-GR, luciferase signal; read-out: GR agonist EC50. The method, then: Pharmacological Example 1: Assay for Agonist Activity on Glucocorticoid Receptor (GR)
The test compounds were subjected to a 4-fold serial dilution starting from an initial concentration of 10 µ M, generating a 10-point concentration gradient with duplicate wells for each concentration. The blank control consisted of 0.1 % DMSO.
The HEK293 stable cell line […] transfected with glucocorticoid receptor (GR) (ICE Bioscience, Lot No. TYP-20220519) was cultured in Dulbecco's Modified Eagle Medium (DMEM) supplemented with 10% fetal bovine serum (FBS) and 200 µ g/ml Hygromycin B in a cell incubator containing 5% CO2 at 37 °C. The spent medium was aspirated and the cells were washed once with phosphate-buffered saline (PBS). Then, 1 mL of TrypLE™ Express solution was added, and the cells were incubated at 37 °C for approximately 2 min. When the cells detached from the bottom of the cell culture dish, approximately 5 mL of pre-warmed complete medium at 37 °C was added. The cell suspension was gently pipetted with a pipette to dissociate clumped cells. The cell suspension was transferred to a sterile centrifuge tube and centrifuged at 1000 rpm for 5 min to pellet the cells for experiments or subculture.
HEK293 cells were digested and seeded into 6-cm culture dishes. The pBIND-GR plasmid was transfected into the HEK293 cells using a transfection reagent, resulting in HEK293 cells successfully transfected with the pBIND-GR plasmid. The cells were resuspended in phenol red-free DMEM medium containing 5% charcoal-stripped serum, counted, and then seeded into 96-well plates. The test compounds were added, and the plates were then incubated in an incubator. The luminescence signal values were measured using a multimode microplate reader following the instructions of the luciferase assay kit. The EC50 values of each test compound were calculated using the nonlinear fitting formula with GraphPad Prism 8.0 software.
In general terms: In a reporter assay the amount or activity of a reporter protein is the signal.

What is called EC50 is the concentration needed to bring the measured effect to its halfway point. Consider `C[C@]12C=CC(=O)C=C1CC[C@H]1[C@@H]3C[C@H]4OC(c5ccc(CNC6COC(=O)C6)cc5)O[C@@]4(C(=O)CO)[C@@]3(C)C[C@H](O)[C@@]12Cl` (stereo partly drawn) [Compound 27, (6aS,6bR,7S,8aS,8bS,11aR,12aS,12bS)-6b-Chloro-7-hydroxy-8b-(2-hydroxyacetyl)-6a,8a-dimethyl-10-(4-(((5-oxotetrahydrofuran-3-yl)amino)methyl)phenyl)-1,2,6a,6b,7,8,8a,8b,11a,12,12a,12b-dodecahydro-4H-naphtho[2',1':4,5]indeno[1,2-d][1,3]dioxol-4-one], for which the EC50 was 1.82 nM.
Then `C[C@]12C=CC(=O)C=C1CC[C@H]1[C@@H]3C[C@H]4OC(c5ccc(COC6COC(=O)C6)cc5)O[C@@]4(C(=O)CO)[C@@]3(C)C[C@H](O)[C@@]12Cl` (stereo partly drawn) [Compound 25, (6aS,6bR,7S,8aS,8bS,11aR,12aS,12bS)-6b-Chloro-7-hydroxy-8b-(2-hydroxyacetyl)-6a,8a-dimethyl-10-(4-(((5-oxotetrahydrofuran-3-yl)oxy)methyl)phenyl)-1,2,6a,6b,7,8,8a,8b,11a,12,12a,12b-do decahydro-4H-naphtho[2',1':4,5]indeno[1,2-d][1,3]dioxol-4-one], with 1.3 nM; and `C[C@]12C=CC(=O)C=C1[C@@H](F)C[C@H]1[C@@H]3C[C@H]4OC(C5CCC(NC(=O)C6COC(=O)C6)CC5)O[C@@]4(C(=O)SCF)[C@@]3(C)C[C@H](O)[C@@]12F` (stereo partly drawn) [Compound 6, S-(Fluoromethyl) (2S,6aS,6bR,7S,8aS,8bS,11aR,12aS,12bS)-2,6b-difluoro-7-hydroxy-6a,8a-dimethyl-4-oxo-10-(4-(5-oxotetrahydrofuran-3-carboxamido)cyclohexyl)-1,2,4,6a,6b,7,8,8a,11a,12,12a,12b-dodecahydro-8bH-naphtho[2',1':4,5]indeno[1,2-d][1,3]dioxole-8b-carbothioate], with 8.69 nM.
Then `C[C@]12C=CC(=O)C=C1CC[C@H]1[C@@H]3C[C@H]4OC(c5ccc(OC6CCOC6=O)cc5)O[C@@]4(C(=O)CO)[C@@]3(C)C[C@H](O)[C@@]12F` (stereo partly drawn) [Compound 40, (6aS,6bR,7S,8aS,8bS,11aR,12aS,12bS)-6b-Fluoro-7-hydroxy-8b-(2-hydroxyacetyl)-6a,8a-dimethyl-10-(4-((2-oxotetrahydrofuran-3-yl)oxy)phenyl)-1,2,6a,6b,7,8,8a,8b,11a,12,12a,12b-dodecahydr o-4H-naphtho[2',1':4,5]indeno[1,2-d][1,3]dioxol-4-one], with 30.7 nM.
Then `C[C@]12C=CC(=O)C=C1CC[C@@H]1[C@@H]2[C@@H](O)C[C@@]2(C)[C@H]1C[C@H]1OC(c3ccc(COC4COC(=O)C4)cc3)O[C@]12C(=O)CO` (stereo partly drawn) [Compound 31, (6aR,6bS, 7S,8aS,8bS,11aR,12aS,12bS)-7-Hydroxy-8b-(2-hydroxyacetyl)-6a,8a-dimethyl-10-(4-(( (5-oxotetrahydrofuran-3-yl)oxy)methyl)phenyl)-1,2,6a,6b,7,8,8a,8b,11a,12,12a,12b-dodecahydro-4H-naphtho[2',1':4,5]indeno[1,2-d][1,3]dioxol-4-one], with 8.13 nM.
For `C[C@]12C=CC(=O)C=C1CC[C@@H]1[C@@H]2[C@@H](O)C[C@@]2(C)[C@H]1C[C@H]1OC(c3ccc(CSC4CCOC4=O)cc3)O[C@]12C(=O)CO` (stereo partly drawn) [Compound 29, (6aR,6bS, 7S,8aS,8bS,11aR,12aS,12bS)-7-Hydroxy-8b-(2-hydroxyacetyl)-6a,8a-dimethyl-10-(4-(( (2-oxotetrahydrofuran-3-yl)thio)methyl)phenyl)-1,2,6a,6b,7,8,8a,8b,11a,12,12a,12b-dodecahydro-4H-naphtho[2',1':4,5]indeno[1,2-d][1,3]dioxol-4-one], the EC50 was determined as 3.66 nM.
In the case of `C[C@]12C=CC(=O)C=C1CC[C@@H]1[C@@H]2[C@@H](O)C[C@@]2(C)[C@H]1C[C@H]1OC(c3ccc(CSC4COC(=O)C4)cc3C#N)O[C@]12C(=O)CO` (stereo partly drawn) [Compound 32, 2-((6aR,6bS,7S,8aS,8bS,11aR,12aS,12bS)-7-Hydroxy-8b-(2-hydroxyacetyl)-6a,8a-dimethyl-4-oxo-2,4,6a,6b,7,8,8a,8b,11a,12,12a,12b-dodecahydro-1H-naphtho[2',1':4,5]indeno[1,2-d][1,3]dioxol-10-yl)-5-(((5-oxotetrahydrofuran-3-yl)thio)methyl)benzonitrile] it was 3.67 nM; in that of `C[C@]12C=CC(=O)C=C1[C@@H](F)C[C@H]1[C@@H]3C[C@H]4OC(c5ccc(COC6COC(=O)C6)cc5)O[C@@]4(C(=O)CO)[C@@]3(C)C[C@H](O)[C@@]12F` (stereo partly drawn) [Compound 10, (2S,6aS,6bR,7S,8aS,8bS,11aR,12aS,12bS)-2,6b-Difluoro-7-hydroxy-8b-(2-hydroxyacetyl)-6a,8a-dimethyl-10-(4-(((5-oxotetrahydrofuran-3-yl)oxy)methyl)phenyl)-1,2,6a,6b,7,8,8a,8b,11a,12,12a,1 2b-dodecahydro-4H-naphtho[2',1':4,5]indeno[1,2-d][1,3]dioxol-4-one], 2.65 nM; in that of `C[C@]12C=CC(=O)C=C1CC[C@@H]1[C@@H]2[C@@H](O)C[C@@]2(C)[C@H]1C[C@H]1OC(c3ccc(CNC4CCOC4=O)cc3)O[C@]12C(=O)CO` (stereo partly drawn) [Compound 30, (6aR,6bS, 7S,8aS,8bS,11aR,12aS,12bS)-7-Hydroxy-8b-(2-hydroxyacetyl)-6a,8a-dimethyl-10-(4-(( (2-oxotetrahydrofuran-3-yl)amino)methyl)phenyl)-1,2,6a,6b,7,8,8a,8b,11a,12,12a,12b-dodecahydr o-4H-naphtho[2',1':4,5]indeno[1,2-d][1,3]dioxol-4-one], 7.2 nM.
In the case of `C[C@]12C=CC(=O)C=C1CC[C@H]1[C@@H]3C[C@H]4OC(c5ccc(CSC6COC(=O)C6)cc5)O[C@@]4(C(=O)CCl)[C@@]3(C)C[C@H](O)[C@@]12Cl` (stereo partly drawn) [Compound 39, (6aS,6bR,7S,8aS,8bS,11aR,12aS,12bS)-6b-Chloro-8b-(2-chloroacetyl)-7-hydroxy-6a,8a-dimethyl-10-(4-(((5-oxotetrahydrofuran-3-yl)thio)methyl)phenyl)-l,2,6a,6b,7,8,8a,8b,11a,12,12a,12b-dode cahydro-4H-naphtho[2',1':4,5]indeno[1,2-d][1,3]dioxol-4-one] it was 3.31 nM; in that of `C[C@]12C=CC(=O)C=C1[C@@H](F)C[C@H]1[C@@H]3C[C@H]4OC(c5ccc(NC(=O)C6COC(=O)C6)cc5)O[C@@]4(C(=O)CO)[C@@]3(C)C[C@H](O)[C@@]12F` (stereo partly drawn) [Compound 2, N-(4-((2S,6aS,6bR,7S,8aS,8bS,11aR,12aS,12bS)-2,6b-Difluoro-7-hydroxy-8b-(2-hydroxyacetyl)-6a,8a-dimethyl-4-oxo-2,4,6a,6b,7,8,8a,8b,11a,12,12a,12b-dodecahydro-1H-naphtho[2',1':4,5]indeno[1,2-d][1,3]dioxol-10-yl)phenyl)-5-oxotetrahydrofuran-3-carboxamide], 12.2 nM; in that of `C[C@]12C=CC(=O)C=C1[C@@H](F)C[C@H]1[C@@H]3C[C@H]4OC(c5cnc(CSC6CCOC6=O)nc5)O[C@@]4(C(=O)CO)[C@@]3(C)C[C@H](O)[C@@]12F` (stereo partly drawn) [Compound 52, (2S,6aS,6bR,7S,8aS,8bS,11aR,12aS,12bS)-2,6b-Difluoro-7-hydroxy-8b-(2-hydroxyacetyl)-6a,8a-dimethyl-10-(2-(((2-oxotetrahydrofuran-3-yl)thio)methyl)pyrimidin-5-yl)-1,2,6a,6b,7,8,8a,8b,11a, 12,12a,12b-dodecahydro-4H-naphtho[2',1':4,5]indeno[1,2-d][1,3]dioxol-4-one], 6.92 nM.
Then `C[C@]12C=CC(=O)C=C1[C@@H](F)C[C@H]1[C@@H]3C[C@H]4OC(c5ccc(NCC6CCOC6=O)cc5)O[C@@]4(C(=O)CO)[C@@]3(C)C[C@H](O)[C@@]12F` (stereo partly drawn) [Compound 15, (2S,6aS,6bR,7S,8aS,8bS,11aR,12aS,12bS)-2,6b-Difluoro-7-hydroxy-8b-(2-hydroxyacetyl)-6a,8a-dimethyl-10-(4-(((2-oxotetrahydrofuran-3-yl)methyl)amino)phenyl)-1,2,6a,6b,7,8,8a,8b,11a,12,12 a,12b-dodecahydro-4H-naphtho[2',1':4,5]indeno[1,2-d][1,3]dioxol-4-one], with 6.12 nM; and `C[C@]12C=CC(=O)C=C1CC[C@@H]1[C@@H]2[C@@H](O)C[C@@]2(C)[C@H]1C[C@H]1OC(c3ccc(CNC4COC(=O)C4)cc3)O[C@]12C(=O)CO` (stereo partly drawn) [Compound 33, (6aR,6bS, 7S,8aS,8bS,11aR,12aS,12bS)-7-Hydroxy-8b-(2-hydroxyacetyl)-6a,8a-dimethyl-10-(4-(( (5-oxotetrahydrofuran-3-yl)amino)methyl)phenyl)-1,2,6a,6b,7,8,8a,8b,11a,12,12a,12b-dodecahydr o-4H-naphtho[2',1':4,5]indeno[1,2-d][1,3]dioxol-4-one], with 4.38 nM.

These data come from patent EP4635969A1, “NOVEL GLUCOCORTICOID, METHOD FOR PREPARING SAME, AND USE THEREOF” (Tianjin Pharmaceutical Biotechnology Co., Ltd., priority 2022, dated 2024).
